From ChEMBL document CHEMBL1137016, “1-alkyl-8-(piperazine-1-sulfonyl)phenylxanthines: development and characterization of adenosine A2B receptor antagonists and a new radioligand with subnanomolar affinity and subtype specificity” (J Med Chem, 2009)

How the values were obtained:
[1] = biological target: T1, Adenosine receptor A1 (Rattus norvegicus) (UniProt P25099); assay: Displacement of [3H]CCPA from rat brain cortex adenosine A1 receptor at 10 uM
T1 sequence (whole entry): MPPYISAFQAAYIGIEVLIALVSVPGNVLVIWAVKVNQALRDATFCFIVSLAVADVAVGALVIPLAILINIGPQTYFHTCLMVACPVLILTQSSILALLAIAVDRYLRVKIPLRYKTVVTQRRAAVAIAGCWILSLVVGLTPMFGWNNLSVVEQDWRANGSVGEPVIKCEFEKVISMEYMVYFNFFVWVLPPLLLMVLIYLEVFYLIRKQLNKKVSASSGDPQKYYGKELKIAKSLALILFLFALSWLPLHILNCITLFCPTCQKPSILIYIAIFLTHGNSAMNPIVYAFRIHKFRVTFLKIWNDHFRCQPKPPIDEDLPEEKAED

Adenosine receptor A1 [2] = biological target: T2, Adenosine receptor A1 (Rattus norvegicus, UniProt P25099); assay: Displacement of [3H]CCPA from rat brain cortex adenosine A1 receptor
T2 sequence (P25099 whole entry): T1 sequence (whole entry)

[3] = biological target: T3, Adenosine receptor A2b (Homo sapiens) (UniProt P29275); conditions: CHO, 0.3 nM
T3 sequence (whole entry): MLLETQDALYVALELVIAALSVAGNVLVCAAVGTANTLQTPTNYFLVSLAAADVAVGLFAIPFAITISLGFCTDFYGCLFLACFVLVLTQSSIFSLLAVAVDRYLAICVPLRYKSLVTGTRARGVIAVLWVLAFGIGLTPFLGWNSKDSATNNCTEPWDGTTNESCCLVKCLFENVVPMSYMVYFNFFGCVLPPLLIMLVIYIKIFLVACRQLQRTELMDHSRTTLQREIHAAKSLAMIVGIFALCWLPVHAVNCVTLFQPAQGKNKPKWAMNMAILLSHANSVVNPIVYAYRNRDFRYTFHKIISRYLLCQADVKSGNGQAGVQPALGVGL

[4] = biological target: T4, Adenosine receptor A1 (Homo sapiens) (UniProt P30542); assay: Displacement of [3H]CCPA from human recombinant adenosine A1 receptor expressed in CHO cells at 10 uM; assay type: cell-based
T4 sequence (whole entry): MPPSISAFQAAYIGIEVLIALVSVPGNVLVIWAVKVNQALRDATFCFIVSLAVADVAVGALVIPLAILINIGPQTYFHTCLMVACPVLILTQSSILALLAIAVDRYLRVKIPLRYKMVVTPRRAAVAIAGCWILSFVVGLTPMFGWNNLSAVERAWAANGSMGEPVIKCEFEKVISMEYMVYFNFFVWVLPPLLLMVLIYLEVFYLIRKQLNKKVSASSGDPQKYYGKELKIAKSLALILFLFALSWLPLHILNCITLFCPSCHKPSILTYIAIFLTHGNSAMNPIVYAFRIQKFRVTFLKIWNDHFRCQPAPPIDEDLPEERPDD

[5] = biological target: T5, Adenosine receptor A3 (Homo sapiens) (UniProt P0DMS8); assay: Displacement of [3H]PSB-11 from human recombinant adenosine A3 receptor expressed in CHO cells at 10 uM; assay type: cell-based
T5 sequence (whole entry): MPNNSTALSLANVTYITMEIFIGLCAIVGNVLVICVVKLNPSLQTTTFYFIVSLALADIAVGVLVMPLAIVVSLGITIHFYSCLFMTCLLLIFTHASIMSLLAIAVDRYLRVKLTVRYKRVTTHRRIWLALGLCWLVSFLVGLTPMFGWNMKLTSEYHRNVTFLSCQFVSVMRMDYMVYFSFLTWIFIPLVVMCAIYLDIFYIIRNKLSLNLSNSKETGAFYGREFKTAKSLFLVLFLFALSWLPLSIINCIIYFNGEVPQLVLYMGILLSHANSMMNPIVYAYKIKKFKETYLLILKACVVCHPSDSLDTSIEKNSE

[6] = biological target: Adenosine receptor A2a (Rattus norvegicus) (UniProt P30543); assay: Displacement of [3H]MSX-2 from rat brain striatum adenosine A2A receptor at 10 uM
Adenosine receptor A2a (Rattus norvegicus), sequence (P30543 whole entry): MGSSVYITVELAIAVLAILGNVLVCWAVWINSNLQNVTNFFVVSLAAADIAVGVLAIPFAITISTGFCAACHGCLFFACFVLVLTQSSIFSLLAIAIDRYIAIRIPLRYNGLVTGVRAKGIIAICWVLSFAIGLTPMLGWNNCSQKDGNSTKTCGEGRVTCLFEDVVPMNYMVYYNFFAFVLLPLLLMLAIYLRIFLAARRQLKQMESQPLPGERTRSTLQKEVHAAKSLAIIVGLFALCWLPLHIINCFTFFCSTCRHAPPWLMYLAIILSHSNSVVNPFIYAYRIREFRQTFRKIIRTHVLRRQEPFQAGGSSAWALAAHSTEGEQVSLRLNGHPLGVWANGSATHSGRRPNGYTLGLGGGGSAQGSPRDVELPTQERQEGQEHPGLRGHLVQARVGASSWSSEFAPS

Adenosine receptor A2b [7] = biological target: T6, Adenosine receptor A2b (Homo sapiens, UniProt P29275); assay: Displacement of [3H]PSB-603 from human recombinant adenosine A2B receptor expressed in CHO cells; assay type: cell-based
T6 sequence (P29275 whole entry): T3 sequence (whole entry)

Adenosine receptor A2a [8] = biological target: T7, Adenosine receptor A2a (Homo sapiens, UniProt P29274); assay: Displacement of [3H]MSX-2 from human recombinant adenosine A2A receptor expressed in CHO cells; assay type: cell-based
T7 sequence (P29274 whole entry): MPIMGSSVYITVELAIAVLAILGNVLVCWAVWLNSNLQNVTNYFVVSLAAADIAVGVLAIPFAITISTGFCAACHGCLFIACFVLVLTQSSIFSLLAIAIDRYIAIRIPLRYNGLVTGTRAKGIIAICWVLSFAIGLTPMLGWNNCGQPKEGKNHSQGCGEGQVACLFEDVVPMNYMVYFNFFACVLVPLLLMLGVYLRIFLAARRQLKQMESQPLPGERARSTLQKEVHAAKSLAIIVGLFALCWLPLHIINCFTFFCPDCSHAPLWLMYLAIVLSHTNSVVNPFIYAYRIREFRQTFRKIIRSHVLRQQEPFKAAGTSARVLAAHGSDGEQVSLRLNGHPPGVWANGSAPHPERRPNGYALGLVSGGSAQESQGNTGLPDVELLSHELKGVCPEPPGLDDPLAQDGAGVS

[9] = biological target: T3, Adenosine receptor A2b (Homo sapiens); conditions: CHO, 0.3 nM; remark: listed apart in the source
[10] = biological target: T8, Adenosine receptor A2b (Mus musculus) (UniProt Q60614); assay: Activity at mouse recombinant adenosine A2B receptor expressed in CHO cells assessed per mg of protein; assay type: cell-based
T8 sequence (whole entry): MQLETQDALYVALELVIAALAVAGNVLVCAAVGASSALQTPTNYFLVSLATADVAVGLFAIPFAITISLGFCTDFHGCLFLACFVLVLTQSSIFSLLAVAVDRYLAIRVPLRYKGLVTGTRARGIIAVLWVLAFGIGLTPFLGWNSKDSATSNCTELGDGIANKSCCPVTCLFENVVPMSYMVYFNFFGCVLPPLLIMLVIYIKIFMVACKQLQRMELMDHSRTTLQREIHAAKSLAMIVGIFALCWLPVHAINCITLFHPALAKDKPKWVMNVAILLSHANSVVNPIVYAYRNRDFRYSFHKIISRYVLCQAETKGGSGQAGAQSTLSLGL

Adenosine receptor A2b [11] = biological target: T6, Adenosine receptor A2b; assay: Binding affinity to human recombinant adenosine A2B receptor expressed in CHO cells by saturation experiment; assay type: cell-based
Adenosine receptor A2b [12] = biological target: T6, Adenosine receptor A2b; assay: Binding affinity to human recombinant adenosine A2B receptor expressed in CHO cells by kinetic experiment; assay type: cell-based
Adenosine receptor A2b [13] = biological target: T6, Adenosine receptor A2b; assay: Antagonist activity at adenosine A2B receptor in human Jurkat T cells assessed as inhibition of NECA-induced increase in intracellular calcium concentration by fluorimetric measurement in presence of MSX-2; assay type: functional, cell-based
Adenosine receptor A2a [14] = biological target: T7, Adenosine receptor A2a; assay: Displacement of [3H]MSX-2 from human recombinant adenosine A2A receptor expressed in CHO cells at 10 uM; assay type: cell-based
Adenosine receptor A2b [15] = biological target: T9, Adenosine receptor A2b (Mus musculus, UniProt Q60614); assay: Displacement of [3H]PSB-603 from mouse recombinant adenosine A2B receptor expressed in CHO cells; assay type: cell-based
T9 sequence (Q60614 whole entry): T8 sequence (whole entry)

Adenosine receptor A3 = biological target: T10, Adenosine receptor A3 (Homo sapiens, UniProt P0DMS8); assay: Displacement of [3H]PSB-11 from human recombinant adenosine A3 receptor expressed in CHO cells; assay type: cell-based
T10 sequence (P0DMS8 whole entry): T5 sequence (whole entry)

Adenosine receptor A1 [16] = biological target: T11, Adenosine receptor A1 (Homo sapiens, UniProt P30542); assay: Displacement of [3H]CCPA from human adenosine A1 receptor expressed in CHO cells; assay type: cell-based
T11 sequence (P30542 whole entry): T4 sequence (whole entry)

Adenosine receptor A2a [17] = biological target: Adenosine receptor A2a (Rattus norvegicus, UniProt P30543); assay: Displacement of [3H]MSX-2 from rat brain striatum adenosine A2A receptor
Adenosine receptor A2a (Rattus norvegicus, UniProt P30543), sequence (P30543 whole entry): as the sequence (P30543 whole entry) above

Adenosine receptor A2b [18] = biological target: T6, Adenosine receptor A2b; assay: Displacement of [125I]I-ABOPX from human recombinant adenosine A2B receptor expressed in HEK293 cells; assay type: cell-based

Row | inhibition [1] [%] | Ki (Adenosine receptor A1 [2]) [nM] | T1/2 [3] [min] | inhibition [4] [%] | inhibition [5] [%] | inhibition [6] [%] | Ki (Adenosine receptor A2b [7]) [nM] | Ki (Adenosine receptor A2a [8]) [nM] | T1/2 [9] [min] | Bmax [10] [fmol] | Kd (Adenosine receptor A2b [11]) [nM] | Kd (Adenosine receptor A2b [12]) [nM] | IC50 (Adenosine receptor A2b [13]) [nM] | inhibition (Adenosine receptor A2a [14]) [%] | Kd (Adenosine receptor A2b [15]) [nM] | Ki (Adenosine receptor A3) [nM] | Ki (Adenosine receptor A1 [16]) [nM] | Ki (Adenosine receptor A2a [17]) [nM] | Ki (Adenosine receptor A2b [18]) [nM] | SMILES
1 | 18 | > 10000 | 24.2 | 10 | 10 | 19 | 0.553 | > 10000 | 12.8 | 645 | 0.403 | 0.652 | 1.13 | 7 | 0.351 | > 10000 | > 10000 | > 10000 | – | CCCn1c(=O)[nH]c2nc(-c3ccc(S(=O)(=O)N4CCN(c5ccc(Cl)cc5)CC4)cc3)[nH]c2c1=O
2 | – | – | – | – | – | – | 21400 | – | – | – | – | – | – | – | – | – | – | – | 25500 | Nc1nc(Cl)nc2c1ncn2[C@@H]1O[C@H](CO)[C@@H](O)[C@H]1O
